# Reference: patent publication US20110105515A1, “TARGETING THE ONCOPROTEIN NUCLEOPHOSMIN” (President and Fellows of Harvard College, priority 2007, published 2011)
# What was measured:
# EKVX = EKVX (Non-Small Cell Lung Cancer), 48 hours, SRB
# OVCAR-8 = OVCAR-8 (Ovarian Cancer), 48 hours, SRB
# SF-268 = SF-268 (CNS Cancer), 48 hours, SRB
# NCI-H460 = NCI-H460 (Non-Small Cell Lung Cancer), 48 hours, SRB
# SK-OV-3 = SK-OV-3 (Ovarian Cancer), 48 hours, SRB
# MDA-MB-468 = MDA-MB-468 (Breast Cancer), 48 hours, SRB
# MALME-3M = MALME-3M (Melanoma), 48 hours, SRB
# OVCAR-4 = OVCAR-4 (Ovarian Cancer), 48 hours, SRB
# SK-MEL-28 = SK-MEL-28 (Melanoma), 48 hours, SRB
# KM12 = KM12 (Colon Cancer), 48 hours, SRB
# ACHN = ACHN (Renal Cancer), 48 hours, SRB
# SF-295 = SF-295 (CNS Cancer), 48 hours, SRB
# A498 = A498 (Renal Cancer), 48 hours, SRB
# K-562 = K-562 (Leukemia), 48 hours, SRB
# UACC62 = UACC62 (Melanoma), 48 hours, SRB
# HCC-2998 = HCC-2998 (Colon Cancer), 48 hours, SRB
# NCI-H23 = NCI-H23 (Non-Small Cell Lung Cancer), 48 hours, SRB
# NCI/ADR-RES = NCI/ADR-RES (Breast Cancer), 48 hours, SRB
# MDA-MB-231/ATCC = MDA-MB-231/ATCC (Breast Cancer), 48 hours, SRB
# SK-MEL-5 = SK-MEL-5 (Melanoma), 48 hours, SRB
# RPMI-8226 = RPMI-8226 (Leukemia), 48 hours, SRB
# SF-539 = SF-539 (CNS Cancer), 48 hours, SRB
# COLO 205 = COLO 205 (Colon Cancer), 48 hours, SRB
# CCRF-CEM = CCRF-CEM (Leukemia), 48 hours, SRB
# DU-145 = DU-145 (Prostate Cancer), 48 hours, SRB
# NCI-H226 = NCI-H226 (Non-Small Cell Lung Cancer), 48 hours, SRB
# MCF7 = MCF7 (Breast Cancer), 48 hours, SRB
# HOP-62 = HOP-62 (Non-Small Cell Lung Cancer), 48 hours, SRB
# SN12C = SN12C (Renal Cancer), 48 hours, SRB
smiles,measurement,setting,value
Cc1cc(C)cc(-c2ccc3c(c2)[N+]([O-])=C2C3=C[C@@]34NC(=O)C5(CCCN5C3=O)CC4C2(C)C)c1 (some centres unmarked) [Biphenyl Analogue],TGI,EKVX,1.11 µM
same,TGI,OVCAR-8,1.03 µM
same,TGI,SF-268,767 nM
same,TGI,NCI-H460,1.18 µM
same,TGI,SK-OV-3,1.19 µM
same,TGI,MDA-MB-468,590 nM
same,TGI,MALME-3M,244 nM
same,TGI,OVCAR-4,1.72 µM
same,TGI,SK-MEL-28,1.08 µM
same,TGI,KM12,740 nM
same,TGI,ACHN,618 nM
same,TGI,SF-295,1.54 µM
same,TGI,A498,1.32 µM
same,TGI,K-562,358 nM
same,TGI,UACC62,471 nM
same,TGI,HCC-2998,1.06 µM
same,TGI,NCI-H23,840 nM
same,TGI,NCI/ADR-RES,2.27 µM
same,TGI,MDA-MB-231/ATCC,1.05 µM
same,TGI,SK-MEL-5,324 nM
same,TGI,RPMI-8226,48.6 nM
same,TGI,SF-539,445 nM
same,TGI,COLO 205,259 nM
same,TGI,CCRF-CEM,421 nM
same,TGI,DU-145,813 nM
same,TGI,NCI-H226,707 nM
same,TGI,MCF7,984 nM
same,TGI,HOP-62,3.32 µM
same,TGI,SN12C,614 nM
